Data: patent US20190275003A1, “ENCAPSULATION OF PHOSPHODIESTERASE INHIBITORS TO TREAT ALCOHOLIC LIVER DISEASE” (University of Louisville Research Foundation, Inc., priority 2016, published 2019)
Each block holds one compound with its values, some of them ahead of it.

Columns and labels:
[1] = tested on: mouse aortic endothelial cells (MAECs); assay: Fusion rate of rolipram-loaded vesicles to MAECs; format: cell-based
Description: FIGS. 8A-B show the fusion rate of FLVs-Rolipram to RAW cells and mouse aortic endothelial cells (MAECs) in the presence or absence of excipients in the vehicle. Using fluorescent-labeled FLVs and a Nanoparticle Tracking Analysis instrument to quantify FLV numbers, the fusion rate of vesicles to RAW cells was quantified over time. (A) Lipid vesicles formulated with DOPC/POPA (3:2) loaded with rolipram (DOPC:POPA-R) fused to RAW cells at a faster rate than DOPC vesicles loaded with rolipram (DOPC). […] FLVs=fusogenic lipid vesicles, SOA=Sucrose octaacetate, SAIB=acetate isobutyrate.
Studies quantifying the fusion rate of vesicles loaded with rolipram to RAW or mouse aortic endothelial cells (MAECs) were performed. In the first experiment, the fusion rate of lipid vesicles to RAW cells using a highly fusogenic vesicle formulated with DOPC/POPA was compared to less fusogenic vesicle formulated with DOPC (FIG. 8A). […] In the second experiment, the fusion rate of FLVs to MAECs using the excipients sucrose octaacetate (SOA) or SAIB and the same vesicle lipid formulations as in the experiment above were performed. […] Also, SOA an excipient used to enhance the stability of FLVs-rolipram during storage appears to augment the fusion rate of FLVs.

[2] = tested on: TNF production in RAW 264.7 cells; assay: RAW cell assay: LPS-induced TNF production (ELISA); format: cell-based, mouse; conditions: LPS 100 ng/mL 18 h, SAIB 0.5 mg/mL, FLVs 10 mg/mL lipid
Experimental: Cells were treated with SAIB (0.5 mg/mL), FLVs (10 mg/mL of lipid) with SAIB (FLV-SAIB) or FLVs-rolipram 0.75 mg/mL (FLV-Rol) without SAIB and stimulated with LPS (100 ng/mL) for 18 h. The effect of SAIB was evaluated by quantifying TNF production using an ELISA kit. SAIB alone appears to exert a beneficial effect, and FLVs with SAIB have a greater beneficial effect. FLVs=fusogenic lipid vesicles, LPS=endotoxin, SAIB=acetate isobutyrate.
Cells were treated with 0.73 mg/mL rolipram (Rol), FLVs only, or 0.73 mg/mL of FLVs-rolipram (FLVs-Rol) and stimulated with LPS (100 ng/mL) for 24 h. Control cells received treatment but no LPS. TNF in media was measured using an ELISA kit. UT=untreated cells, FLVs=fusogenic vesicles, LPS=endotoxin.
The effect of adding SAIB (0.5 mg/mL) to the vehicle was tested in vitro using RAW cells pulsed with LPS (100 ng/mL) and evaluated for TNF production. Rolipram (0.75 mg/mL) encapsulated in of 10 mg/mL of lipid without SAIB was used as a control.
An in vitro screening assay to evaluate the effectiveness of the FLVs-rolipram formulations was developed. The assay uses a murine macrophage cell line (RAW 264.7 cells), which produces high levels of TNF in response to LPS stimulation. […] After 24 h, TNF protein was measured in cell free supernatant by ELISA kit (FIG. 14).

[3] = Encapsulation efficiency of rolipram in FLVs; format: physicochemical; conditions: FLVs 10 mg/mL lipid, rolipram 0.75 mg/mL, diluted 5 or 10 times
Experimental: FIGS. 5A-C show the encapsulation efficiency percent of rolipram when 10 (A), 12.5 (B) and 15 mg/mL of FLV lipid (C) was hydrated with buffer containing 0.75 mg/mL of rolipram and diluted in water five or 10 times. The percentage of free rolipram in buffer was calculated by measuring the amount of free drug in buffer after FLVs in solution were filtered out. More than 50% of drug remained encapsulated with either of the dilutions over time. The amount of rolipram associated with FLVs appeared to fluctuate over time but it stabilized at the end of […]. FLVs=fusogenic vesicles.
After dilution the rolipram EE % of FLVs was similar when either excipient or no excipient was utilized. FLVs=fusogenic lipid vesicles, SOA=Sucrose octaacetate, SAIB=acetate isobutyrate.
To evaluate the ability of the FLVs to retain rolipram in an aqueous system, 0.75 mg/mL of rolipram was loaded into the lipid bilayer and internal liquid compartment of FLVs using four concentrations of lipid: 5, 10, 12.5, and 15 mg/ml. The rolipram encapsulation efficiency was quantified.
To evaluate the effect of dilution on encapsulation efficiency of FLVs-rolipram, different concentrations of FLV lipid (10, 12.5 and 15 mg/ML) were hydrated with the same amount of rolipram (0.75 mg/mL) and then diluted in water 5 and 10 times. Rolipram levels in the external buffer compartment were measured over a 90 min period. […]

[4] = tested on: liver injury and fibrosis; conditions: several animal models; cited from earlier work
alcoholic hepatitis = conditions: human clinical studies; cited from earlier work
TNF [5] = assay: LPS mediated TNF expression in ethanol treated cells; format: cell-based; conditions: data not shown
Description: Studies in monocytes have shown that cAMP plays an important role in regulating TNF expression, and that the elevation of cellular cAMP suppresses TNF production. Therefore, the instant inventors evaluated (1) the effects of chronic ethanol exposure on the cellular levels of cAMP, and (2) TNF expression in monocytes in vitro and in rat primary hepatic Kupffer cells obtained from a clinically relevant enteral alcohol feeding model of alcoholic liver disease (ALD). […] Consistent with these decreased cAMP levels, ethanol led to an increase in LPS-inducible TNF mRNA expression (FIG. 2) and TNF protein, without any change in the TNF mRNA stability (data not shown). Enhancement of cellular cAMP with dbcAMP abrogated LPS mediated TNF expression in ethanol treated cells (data not shown).

TNF [6] = assay: LPS-stimulated TNF expression in human PBMCs pre-treated with rolipram; format: cell-based
Experimental: PBMCs isolated from a healthy individual were pre-treated with rolipram (1, 5, and 10 μM) for 30 minutes and further stimulated with LPS (1 μg/ml) for 6 hours. Cell-free supernatants were analyzed for TNF expression by ELISA. Rol=rolipram. TNF=tumor necrosis factor-alpha, FLVs=fusogenic lipid vesicles.
The effect of chronic ethanol exposure on PDE4 gene expression and activity in human THP-1 and mouse RAW macrophages was evaluated next, as a mechanism for the decreased intracellular cAMP levels and the increased LPS-stimulated TNF.^4 PDE4 (predominantly present in monocytes) degrades and inactivates cAMP, with PDE4B playing a critical role in LPS signaling. It was shown that chronic alcohol increased LPS-inducible PDE4B mRNA expression (FIG. 2).

[7] = tested on: α2-adrenoceptor-mediated xylazine/ketamine-induced anesthesia; assay: Duration of xylazine/ketamine anesthesia (behavioral correlate of emesis); format: in vivo, male C57BL/6 mice; conditions: free rolipram IV, mean of the 3 groups (1.6, 3.3 and 6.6 mg/kg bw); paired control 75.1±4.7 min
Experimental: FLVs-Rol=Fusogenic lipid vesicles-rolipram.
Safety pharmacology studies were conducted to determine the dose-response relationship of adverse effects observed by rolipram. The primary side effect of rolipram is the inhibition of PDE4 activity in the CNS, which leads to emesis in humans. The mechanism of the emetic response associated with PDE4 inhibitors is thought to produce a pharmacological response analogous to that of presynaptic α2-adrenoceptor inhibition, by elevating intracellular levels of cAMP in noradrenergic neurons. Consequently, PDE4 inhibitors remove an inhibitory mechanism that modulates the release of mediators (5-HT, substance P, noradrenaline) involved in the onset of the emetic reflex. […]
Since rodents are a non-vomiting species, examining rolipram-induced side effects in rodents is particularly difficult.^34-36 To circumvent this problem, a behavioral correlate of emesis model in mice was utilized.^35 In this model, rolipram is used to reverse the duration of α2-adrenoceptor-mediated xylazine/ketamine-induced anesthesia, which is temporally quantified by the return of the righting reflex. […] After 15 min, the mice were placed on a controlled heating pad in the dorsal recumbent position and the duration of anesthesia was determined by timing the return of the righting reflex. […]

[8] = tested on: cholestatic liver injury and fibrosis; conditions: rat, in vivo; cited from earlier work

effect of excipient on rolipram encapsulation efficiency [3]: did not significantly alter
Compound: sucrose acetate isobutyrate [SAIB]
effect of excipient on fusion rate of DOPC/POPA FLVs-rolipram to MAECs [1]: appeared to decrease the fusion rate
TNF production [2]: reduced the effect of LPS

Compound: CC(=O)CCCCn1c(=O)c2c(ncn2C)n(C)c1=O [Pentoxifylline]
liver injury and fibrosis [4]: attenuate liver injury and fibrosis
mortality in patients with AH (alcoholic hepatitis): decreased mortality

Compound: CCCC(=O)Nc1ncnc2c1ncn2[C@@H]1O[C@@H]2COP(=O)(O)O[C@H]2[C@H]1OC(=O)CCC [dbcAMP]
LPS mediated TNF expression (TNF [5]): abrogated

Compound: COc1ccc(C2CNC(=O)C2)cc1OC1CCCC1 (stereo not drawn) [rolipram, 4-(3-Cyclopentyloxy-4-methoxy-phenyl) pyrrolidin-2-one]
TNF mRNA (TNF [6]; human PBMCs stimulated with LPS, data not shown): significantly downregulated
TNF protein (TNF [6]; human PBMCs, rolipram 1, 5, 10 μM 30 min, LPS 1 μg/ml 6 h, ELISA, dose-dependent): significantly downregulated
mean anesthesia time [7]: 48.6 ± 5.5 min
protection against cholestatic liver injury and fibrosis [8]: significant protection

effect of excipient on rolipram encapsulation efficiency [3]: did not significantly alter
Compound: CC(=O)OC[C@H]1O[C@@](COC(C)=O)(O[C@H]2O[C@H](COC(C)=O)[C@@H](OC(C)=O)[C@H](OC(C)=O)[C@H]2OC(C)=O)[C@@H](OC(C)=O)[C@@H]1OC(C)=O [SOA, sucrose octaacetate]
effect of excipient on fusion rate of DOPC/POPA FLVs-rolipram to MAECs [1]: enhanced the fusion rate
